Reference: patent US20140248254A1, “THE USE OF ACHE AS NUCLEASE” (priority 2011, published 2014)

Target: T1, DNase activity of AChE (Homo AChE protein) (Homo sapiens, UniProt P22303)
T1 construct: AChE 1-547AA corresponding to human; AChE1-548AA corresponding to mouse; made in house
Experiment: Effect of metal cations and chelators on DNase activity of Homo AChE
Type: biochemical
Conditions: 2.5 mM CaCl2, 5 mM MgCl2, 0.5 mM EGTA, 0.5 mM EDTA; 6 h
Description: A. In the presence of 2.5 mM CaCl2, 5 mM MgCl2, 0.5 mM EGTA, 0.5 mM EDTA or the combination thereof, plasmid DNA (pEGFP-C1 plasmid) was incubated with Homo AChE protein for 6 h.
Purified plasmid DNA was used as substrate for detection. In the experiment of cleaving of plasmid DNA, 0.15 μg of plasmid DNA with a transfection-grade purity (pEGFP-C1 plasmid, Clotech) was added to 10 μl buffer system containing (5.0 mM Tris-HCl, PH 7.5; 2.5 mM CaCl2; 5.0 mM MgCl2). 1 μg (or an amount indicated in Examples) of purified AChE proteins of human or mouse origin (AChE 1-547AA corresponding to human; AChE1-548AA corresponding to mouse) was further added, and incubated in 37° C. Sampling at 6 h (or timepoints indicated in Examples).

T1 sequence (P22303 32-578): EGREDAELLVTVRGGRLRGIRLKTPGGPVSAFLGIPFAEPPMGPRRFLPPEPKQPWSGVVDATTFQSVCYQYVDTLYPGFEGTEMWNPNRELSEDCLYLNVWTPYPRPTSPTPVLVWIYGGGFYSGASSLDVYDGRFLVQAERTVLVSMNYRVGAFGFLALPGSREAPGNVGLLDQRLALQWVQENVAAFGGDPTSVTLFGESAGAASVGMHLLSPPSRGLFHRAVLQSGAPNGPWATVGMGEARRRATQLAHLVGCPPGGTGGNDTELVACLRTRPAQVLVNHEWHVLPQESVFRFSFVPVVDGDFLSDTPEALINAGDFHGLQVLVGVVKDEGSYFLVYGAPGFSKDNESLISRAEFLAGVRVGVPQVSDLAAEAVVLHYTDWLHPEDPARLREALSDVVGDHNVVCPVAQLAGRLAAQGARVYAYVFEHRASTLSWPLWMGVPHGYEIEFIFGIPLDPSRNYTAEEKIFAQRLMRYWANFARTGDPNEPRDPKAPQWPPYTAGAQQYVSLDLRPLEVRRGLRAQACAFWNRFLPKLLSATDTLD

Compound	effect on activity of AChE cleaving DNA
O=C(O)CN(CCN(CC(=O)O)CC(=O)O)CC(=O)O [EDTA]	significantly inhibited
O=C(O)CN(CCOCCOCCN(CC(=O)O)CC(=O)O)CC(=O)O [EGTA]	not obvious
